Some test systems named below: DU-145; HCC 2998; HCT-15; HOP-92; IGROV-1; M14; MDA-MB-435; MOLT-4; Malme-3M; NCI-H460; OVCAR-3; OVCAR-4; RPMI-8226; SF-268; SF-295; SF-539; SK-MEL-2; SNB-75; SR; TK-10.
Common to all, as to assay: NCI anticancer screen, dose series, 48 h

Structures are written as SMILES.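 Protocol summary: plate cells (96-well), add compound at 5 concentrations, incubate 48 h, interpolate endpoints linearly. The concentration for 50% growth inhibition is given as GI50.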 Calls of active or inactive are those of the source. No stated cut-off is given here; in the data, active = GI50 up to about 1.1 µM and inactive = higher.

Regarding `CC(=O)ON(C(C)=O)c1ccc(-c2nc3ccccc3s2)cc1`, the GI50 in the assay with DU-145 was 26.2 µM (inactive); with HCC 2998, 17.4 µM (inactive); in the assay with HCT-15 it was 24.4 µM; with HOP-92 it was 34.7 µM (inactive); in the assay on IGROV-1, 0.791 µM (active); with M14, 26.4 µM (inactive). Besides, the GI50 with MDA-MB-435 was 26.9 µM (inactive); with MOLT-4, 13.3 µM (inactive); in the assay on Malme-3M it was 14.7 µM (inactive); in the assay on NCI-H460, 28.4 µM (inactive); with OVCAR-3, 22.1 µM (inactive); in the assay on OVCAR-4, 38.7 µM (inactive). Further, the GI50 was 18.3 µM (inactive) in the assay on RPMI-8226; 24.7 µM (inactive) with SF-268; 30.1 µM (inactive) with SF-295; 15.3 µM (inactive) in the assay with SF-539; 24.8 µM (inactive) in the assay on SK-MEL-2; 24.5 µM (inactive) in the assay on SNB-75. In addition, the results for the GI50 with SR and in the assay with TK-10 were 25.6 µM (inactive) and 34.4 µM (inactive), respectively.
Take `CCCCc1ccc(Nc2nc3c(ncn3COCCBr)c(=O)[nH]2)cc1`: the GI50 with DU-145 is > 100 µM (inactive); in the assay with HCC 2998 it was > 100 µM (inactive); in the assay with HCT-15, > 100 µM; with HOP-92 it was > 100 µM (inactive); in the assay on IGROV-1 it was > 100 µM (inactive); with M14, > 100 µM (inactive). Also, the GI50 with MDA-MB-435, in the assay on MOLT-4, with Malme-3M, in the assay with NCI-H460, with OVCAR-3 and in the assay on OVCAR-4 was > 100 µM (inactive) each time. For the same compound, the GI50 with RPMI-8226, with SF-268, in the assay with SF-295, with SF-539, with SK-MEL-2 and in the assay on SNB-75 was > 100 µM (inactive) in each case. For the same compound, the results for the GI50 in the assay on SR and in the assay with TK-10 were 86.3 µM (inactive) and > 100 µM (inactive), respectively.
In the case of `CCOC(=O)c1c(C)n(Cc2ccccc2)c(=O)c2ccccc2c(=O)c2c(=O)ccc(=O)c1=2`, the GI50 is > 100 µM (inactive) with DU-145; 38.5 µM (inactive) in the assay on HCC 2998; 34.8 µM in the assay with HCT-15; 14.9 µM (inactive) in the assay on HOP-92; 22.3 µM (inactive) in the assay with IGROV-1; 39.1 µM (inactive) in the assay with M14. Also, the GI50 in the assay on MDA-MB-435 was > 100 µM (inactive); in the assay with MOLT-4, 54.7 µM (inactive); in the assay on Malme-3M, 19.9 µM (inactive); in the assay with NCI-H460, > 100 µM (inactive); in the assay on OVCAR-3, 34.1 µM (inactive); in the assay with OVCAR-4, 45 µM (inactive). The GI50 in the assay on RPMI-8226 is 31.2 µM (inactive); in the assay with SF-268, 57.7 µM (inactive); in the assay with SF-295 it was > 100 µM (inactive); in the assay on SF-539, 48.2 µM (inactive); in the assay with SK-MEL-2, > 100 µM (inactive); in the assay with SNB-75 it was > 100 µM (inactive). The figures for the GI50 with SR and with TK-10 were 30.8 µM (inactive) and 29.1 µM (inactive), respectively.
Regarding `CCCN(CCc1ccc(-c2ccccc2)cc1)CCc1ccc2nn[nH]c2c1`, the GI50 in the assay on DU-145 is 9.25 µM (inactive); in the assay with HCC 2998, 6.71 µM (inactive); with HCT-15, 7.76 µM; in the assay on HOP-92, 5.37 µM (inactive); with IGROV-1, 10 µM (inactive); in the assay with M14, 4.28 µM (inactive). In addition, the GI50 was 8.93 µM (inactive) in the assay on MDA-MB-435; 3.75 µM (inactive) in the assay on MOLT-4; 8.79 µM (inactive) with Malme-3M; 8.51 µM (inactive) with NCI-H460; 12.5 µM (inactive) in the assay on OVCAR-3; 14.6 µM (inactive) in the assay with OVCAR-4. Further, the GI50 was 4.52 µM (inactive) in the assay on RPMI-8226; 19.2 µM (inactive) with SF-268; 12 µM (inactive) in the assay with SF-295; 10.7 µM (inactive) with SF-539; 15.6 µM (inactive) with SK-MEL-2; 12.3 µM (inactive) in the assay on SNB-75. Besides, the GI50 with SR is 3.74 µM (inactive); in the assay on TK-10 it was 11.5 µM (inactive).
For the compound `CC(=O)N(CN1C(=O)CCC1C(=O)O)c1ccccc1` (stereo not given), the GI50 with DU-145 is > 61.4 µM (inactive); in the assay with HCC 2998, > 100 µM (inactive); with HCT-15, > 100 µM; with HOP-92, > 63.1 µM (inactive); with IGROV-1 it was > 50.4 µM (inactive); in the assay on M14, > 54.5 µM (inactive). Moreover, the GI50 with MDA-MB-435 is > 100 µM (inactive); in the assay on MOLT-4 it was > 54.2 µM (inactive); in the assay on Malme-3M, 29.8 µM (inactive); in the assay on NCI-H460, > 100 µM (inactive); in the assay with OVCAR-3, > 54.5 µM (inactive); in the assay on OVCAR-4, > 100 µM (inactive). The GI50 is > 55.2 µM (inactive) with RPMI-8226; > 52.4 µM (inactive) in the assay with SF-268; > 52.6 µM (inactive) in the assay with SF-295; > 50.6 µM (inactive) in the assay with SF-539; > 54.7 µM (inactive) with SK-MEL-2; > 56.5 µM (inactive) in the assay with SNB-75. Besides, the GI50 is > 100 µM (inactive) with SR and > 53.5 µM (inactive) in the assay on TK-10.
Regarding `Cn1nnc2c(C(N)=O)ncn2c1=O` [TEMOZOLOMIDE], the GI50 in the assay on DU-145 was > 100 µM (inactive); with HCC 2998 it was > 100 µM (inactive); with HCT-15 it was > 100 µM; in the assay with HOP-92, > 100 µM (inactive); in the assay with IGROV-1, > 100 µM (inactive); in the assay on M14 it was > 100 µM (inactive). The GI50 was > 100 µM (inactive) in the assay with MDA-MB-435; 83.6 µM (inactive) with MOLT-4; > 100 µM (inactive) in the assay with Malme-3M; > 100 µM (inactive) in the assay with NCI-H460; > 100 µM (inactive) with OVCAR-3; > 100 µM (inactive) with OVCAR-4. Besides, the GI50 was > 100 µM (inactive) with RPMI-8226; > 100 µM (inactive) with SF-268; > 100 µM (inactive) in the assay on SF-295; > 100 µM (inactive) in the assay with SF-539; > 100 µM (inactive) in the assay with SK-MEL-2; 71 µM (inactive) in the assay on SNB-75. In addition, the GI50 in the assay on SR and in the assay on TK-10 was > 100 µM (inactive) each time.

The values are drawn from ChEMBL document CHEMBL1201862, “PubChem BioAssay data set” (2004).
